Measured values reported in article PMC4373826, “Antiviral Effect of Methylated Flavonol Isorhamnetin against Influenza” (PLoS ONE, 2015).

Experiments:
Atg-5, Atg-7, and LC3B = test: RT-PCR of autophagy-related genes; format: cell-based, canine; conditions: 50 μM
Protocol: MDCK cells were seeded in 6-well plates and incubated overnight for 80% confluence. After the medium was removed, the cells were washed twice with PBS and infected with the virus as described in the antiviral assay section. Total RNA was isolated using Trizol (Invitrogen, Waltham, MA, USA) according to the manufacturer’s instructions. Synthesis of cDNA was performed using 5 μg of total RNA with MMLV reverse transcriptase (Promega, Madison, WI, USA). The primer sequences used in our study were as follows: HA (forward, 5′-[…]-3′;reverse,5′-[…]-TGACACT-3′); NA (forward, 5′-[…]-3′; reverse,5′-[…]-3); ATG-5 (forward, 5′-[…]-AACAG-3′; reverse, 5′-[…]-3′); ATG-7 (forward, 5′-[…]-3′; reverse, 5′-[…]-A-3′); LC3B (forward, 5′-[…]-3′; reverse, 5′-CTGG-[…]-3′); and GAPDH (forward, 5′-[…]-GGAGC-3′; reverse, 5′-[…]-3′).The expression of mRNA was normalized to that of the control housekeeping gene, GAPDH.

[1] = tested on: influenza A/PR/8/34 (H1N1); test: In vivo antiviral assay in infected mice; set-up: species or system C57BL/6 mice
Protocol: Six-week-old female C57BL/6 mice purchased from KOATECH (Pyeongtaek, South Korea) infected with the PR8 influenza strain (A/PR/8/34, H1N1). After anesthesia, mice were inoculated with 4.25 log10EID50/mL (5 MLD50/mice) in 30 μL sterile PBS via the intranasal route. Two hours post-infection, each group (13 mice) received the following compounds: (1) Tamiflu capsules were dissolved in PBS at a concentration of 10mg/kg and then centrifuged at 1,000rpm/10minutes for removal of the filler. From this solution 200 μL was administered per day orally for 5 days, or (2) flavonoid (Isorhamnetin) was initially dissolved in 0.2% DMSO and then diluted in PBS to a final concentration of 1 mg/kg and less than 0.2% DMSO. This mixture mixed will by vortex and 30 μL of this mixture was administered per day via the intranasal route for 5 days.
One week after infection, the lungs of 3 mice per group were collected for the virology analysis. Lung tissues were excised, homogenized using a homogenizer (Tissue Lyser, Qiagen, Valencia, CA, USA), and centrifuged (2,000 g for 5 min). Ten-fold serial dilutions of the supernatant from the lung homogenate samples were subjected to the virology assays for virus titer determination. Lung homogenates were injected into the allantoic sac of 10-day-old embryonated eggs, which were incubated at 37°C for 48 hr, after which the allantoic fluid was harvested. The virus titer in the allantoic fluid was assessed using the HA assay. The virus titer (EID50/mL) in the fluid was calculated based on the method of Reed and Muench. For the assessments of body weight and survival rate, mice were observed daily for 14 days and monitored for clinical signs.

[2] = Cytotoxicity assay (EZ-Cytox) in MDCK cells; format: cell-based, canine; conditions: dog; MDCK cells, 48 hr
Protocol: To determine the 50% cytotoxic concentration (CC50) for each of the tested flavonoid compounds, MDCK cells were seeded onto 96-well plates (NUNC, Penfield, NY, USA) at a density of 1 × 10^4 cells per well and incubated overnight for 80% confluence. MDCK cells were washed twice with PBS and the culture medium was replaced with medium containing serially diluted flavonoids (concentrations from 10μM up to 300 μM) for 48 hr at 37°C in a 5% CO2atmosphere. After the incubation period, the flavonoid-containing media was replaced with new media containing 10% EZ-Cytox (Daeil Lab Service, Seoul, South Korea), and the cells were incubated in the dark for 3 hr at 37°C in a 5% CO2 atmosphere. The optical density was measured at 480 nm using an x-Mark spectrophotometer (Bio-Rad, Hercules, CA, USA). Cytotoxicity was estimated by comparing the cell survival rate of the flavonoids-treated cells and the DMSO-treated cells with the control (virus-untreated) cells. The control cell values were arbitrarily set as the 100% survival rate. The treated cells values were normalized to the control cell values. The calculation of CC50 was carried out as described in detail in S1 Text.
The 50% cytotoxic concentration (CC50) was calculated according to the following equation:
Cytotoxicity (%) = [100-(ODt/ODs)] x100
ODt: The optical density (OD) of cells treated with the tested flavonoids.
ODs: The OD of cells treated with the control solvent (0.2 % DMSO).
After obtaining the results, we calculated the concentration that induces 50% cell death using the following equation:
(X2 - X1) X (50-Y1) / (Y2 - Y1) + X1. Where, X1 represents the lower concentration used in this experiment, while X2 represents the higher concentration. Y1 represents the mean of the percentage of the viable cells at X1 concentration. On the other hand, Y2 represents the mean of the percentage of the viable cells at X2 concentration.”

[3] = tested on: influenza A/PR/8/34 (H1N1)
[4] = tested on: influenza A/PR/8/34 (H1N1); format: cell-based, influenza A virus; conditions: post-treatment 48 hr
[5] = tested on: influenza A/PR/8/34 (H1N1) virus particles, chicken RBCs; conditions: lowest concentration
[6] = tested on: influenza A/PR/8/34 (H1N1); test: microbe, parasite or virus in culture; conditions: MDCK
[7] = tested on: virus-induced autophagic puncta / acidic vesicular organelles in MDCK cells; test: Virus-induced autophagy assay (AVO staining with AO and MDC); format: cell-based, canine; conditions: 50 μM
Protocol: To examine the ability of isorhamnetin to block the formation of acidic vesicular organelles (AVOs) after influenza A virus infection, we used various vital staining methods for AVOs, as described previously. Briefly, MDCK cells were cultured on 24-well plates until 80% confluence. Cells were infected with influenza A/PR/08/34 (H1N1) virus as described previously and treated with 50 μM of isorhamnetin using the 3 aforementioned methods of flavonoid treatment (pre-treatment, co-treatment, and post-treatment methods). Cells were stained with 5 μg/mL acridine orange (AO) (Sigma-Aldrich) and 50 μM of monodansylcadaverine (MDC) (Sigma-Aldrich)for 15 min at 37°C and washed 3 times with PBS, after which the cells were examined under a fluorescence microscope (Carl Zeiss, Jena, Germany) to allow detection of autophagic puncta.

[8] = infected mice, abstract says oral administration

COc1cc(-c2oc3cc(O)cc(O)c3c(=O)c2O)ccc1O [Isorhamnetin, isorhamnetin]
virus-induced overexpression of autophagy-related genes Atg-5, Atg-7, and LC3B (Atg-5, Atg-7, and LC3B): inhibited | toxic effect in mice ([1]; data not shown): no significant toxic effect | survival rate ([1]; infected mice, observed 14 days): 70–80% | decrease in body weight loss [1, 8]: 25% | decrease in lung virus titer [1, 8]: 2 folds | body weight loss ([1]; vs PBS control group, 14 days): reduced body weight loss | CC50 at 48 h [2]: > 280 µM | cell viability after viral infection [3]: increased cell viability in comparison with quercetin treatment | viral infection ([3]; 50 μM, co-treatment for 2 hr): significantly inhibited | influenza virus-induced cell death ([3]; post-treatment): apparent suppression | virus titer in HA assay (virus yield reduction) [4]: almost completely suppressed | hemolysis of chicken RBCs by the virus particle (HI assay) [5]: significantly inhibited | EC50 ([6]; 0.5 h, Co-treatment (0.5 hr)): 76 µM | EC50 ([6]; 1 h, Co-treatment (1 hr)): 42 µM | EC50 ([6]; 2 h, Co-treatment (2 hr)): < 30 µM | EC50 ([6]; 48 h, Post-treatment): 23 µM | EC50 ([6]; Pre-treatment (1 hr)): 51 µM | EC50 ([6]; Pre-treatment (12 hr)): 65 µM | EC50 ([6]; Pre-treatment (24 hr)): 88 µM | virus-induced autophagic puncta formation and AVO acidification ([7]; post-treatment): almost completely blocked | virus-induced autophagic puncta formation and acidification of AVOs ([7]; pre-, co-, and post-treatment): significantly suppressed
